What was measured:
[1] = xn = mol fraction of the nth substance listed; settings: 101 kPa, Liquid
[2] = refractive index (Na D-line) (dimensionless); xn = mol fraction of the nth substance listed; settings: 101 kPa, Liquid

CCO [ethanol] + COc1ccccc1
x2 = 0
Settings | mass density, 298.15 K [kg/m3] | mass density, 303.15 K [kg/m3] | mass density, 308.15 K [kg/m3] | refractive index, 298.15 K | refractive index, 303.15 K | refractive index, 308.15 K | speed of sound, 298.15 K [m/s] | viscosity, 298.15 K [mPa·s] | viscosity, 303.15 K [mPa·s] | viscosity, 308.15 K [mPa·s]
[1] | 785.91 | 781.6 | 777.26 | – | – | – | 1161 | 1.073 | 0.971 | 0.889
[2] | – | – | – | 1.3591 | 1.3572 | 1.355 | – | – | – | –

COc1ccccc1 [anisole] + CCCO
Settings | mass density, 298.15 K [kg/m3] | mass density, 303.15 K [kg/m3] | mass density, 308.15 K [kg/m3] | refractive index, 298.15 K | refractive index, 303.15 K | refractive index, 308.15 K | speed of sound, 298.15 K [m/s] | viscosity, 298.15 K [mPa·s] | viscosity, 303.15 K [mPa·s] | viscosity, 308.15 K [mPa·s]
[1], x1 = 0.1036 | 816.88 | 812.68 | 808.48 | – | – | – | 1223 | 1.564 | 1.392 | 1.242
[1], x1 = 0.2003 | 835.8 | 831.49 | 827.18 | – | – | – | 1232 | 1.352 | 1.198 | 1.078
[1], x1 = 0.3055 | 856.97 | 852.54 | 848.11 | – | – | – | 1258 | 1.166 | 1.094 | 0.961
[1], x1 = 0.4053 | 876.55 | 872.04 | 867.53 | – | – | – | 1278 | 1.069 | 0.98 | 0.879
[1], x1 = 0.5096 | 897.74 | 893.14 | 888.55 | – | – | – | 1297 | 1.003 | 0.921 | 0.838
[1], x1 = 0.6015 | 915.39 | 910.74 | 906.1 | – | – | – | 1314 | 0.989 | 0.903 | 0.821
[1], x1 = 0.7071 | 934.31 | 929.62 | 924.94 | – | – | – | 1330 | 0.947 | 0.859 | 0.802
[1], x1 = 0.8023 | 952.23 | 947.51 | 942.78 | – | – | – | 1350 | 0.943 | 0.861 | 0.795
[1], x1 = 0.8939 | 970.23 | 965.5 | 960.74 | – | – | – | 1370 | 0.932 | 0.869 | 0.792
[1], x1 = 1 | 989.15 | 984.45 | 979.73 | – | – | – | 1412 | 0.988 | 0.913 | 0.854
[2], x1 = 0.1036 | – | – | – | 1.4013 | 1.3989 | 1.3966 | – | – | – | –
[2], x1 = 0.2003 | – | – | – | 1.4176 | 1.4153 | 1.4129 | – | – | – | –
[2], x1 = 0.3055 | – | – | – | 1.4284 | 1.4314 | 1.4287 | – | – | – | –
[2], x1 = 0.4053 | – | – | – | 1.4459 | 1.4458 | 1.4426 | – | – | – | –
[2], x1 = 0.5096 | – | – | – | 1.461 | 1.4578 | 1.4542 | – | – | – | –
[2], x1 = 0.6015 | – | – | – | 1.4737 | 1.4704 | 1.4673 | – | – | – | –
[2], x1 = 0.7071 | – | – | – | 1.4864 | 1.482 | 1.4793 | – | – | – | –
[2], x1 = 0.8023 | – | – | – | 1.4955 | 1.493 | 1.4897 | – | – | – | –
[2], x1 = 0.8939 | – | – | – | 1.5046 | 1.5014 | 1.499 | – | – | – | –
[2], x1 = 1 | – | – | – | 1.5137 | 1.5113 | 1.5088 | – | – | – | –

Reference: the NIST ThermoML archive (doi:10.1016/j.jct.2006.03.018)
